Test results as given in ChEMBL document CHEMBL1149226, “Inhibitors of hepatitis C virus NS3.4A protease. Part 3: P2 proline variants” (Bioorg Med Chem Lett, 2004).
Starred links: 1 amine or outer side, 2 acyl side, 3 side chain; linkers in the order of their positions; H or OH if unused. Non-standard residues stand in square brackets, D forms with d. Residues, ends and D or L forms follow the SMILES beside them. Groups on a side chain read outwards from the residue. *: point of attachment. Tetrahydroisoquinolin(2-yl) = c1ccc2c(c1)CCN(*)C2; Pro(3S-Et) = CC[C@H]1CCN[C@@H]1C(=O)O; X1 = CCC[C@H](N[*:1])C(=O)C(=O)[*:2]; Pyrazinecarbonyl = O=C(c1cnccn1)*; Hyp = O=C(O)[C@@H]1C[C@@H](O)CN1; CO = O=C([*:1])[*:2]

Key:
[1] = biological target: Hepatitis C virus serine protease, NS3/NS4A (Hepatitis C virus, UniProt D2K2A8+A3EZI9); assay: (§1) Inhibitory activity against hepatitis C virus NS3.4A protease; format: protein-complex assay, Hepacivirus hominis
Hepatitis C virus serine protease, NS3/NS4A (Hepatitis C virus, UniProt D2K2A8+A3EZI9), sequence (D2K2A8 whole entry): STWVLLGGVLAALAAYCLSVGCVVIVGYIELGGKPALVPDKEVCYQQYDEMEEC
Hepatitis C virus serine protease, NS3/NS4A (Hepatitis C virus, UniProt D2K2A8+A3EZI9), sequence (A3EZI9 whole entry): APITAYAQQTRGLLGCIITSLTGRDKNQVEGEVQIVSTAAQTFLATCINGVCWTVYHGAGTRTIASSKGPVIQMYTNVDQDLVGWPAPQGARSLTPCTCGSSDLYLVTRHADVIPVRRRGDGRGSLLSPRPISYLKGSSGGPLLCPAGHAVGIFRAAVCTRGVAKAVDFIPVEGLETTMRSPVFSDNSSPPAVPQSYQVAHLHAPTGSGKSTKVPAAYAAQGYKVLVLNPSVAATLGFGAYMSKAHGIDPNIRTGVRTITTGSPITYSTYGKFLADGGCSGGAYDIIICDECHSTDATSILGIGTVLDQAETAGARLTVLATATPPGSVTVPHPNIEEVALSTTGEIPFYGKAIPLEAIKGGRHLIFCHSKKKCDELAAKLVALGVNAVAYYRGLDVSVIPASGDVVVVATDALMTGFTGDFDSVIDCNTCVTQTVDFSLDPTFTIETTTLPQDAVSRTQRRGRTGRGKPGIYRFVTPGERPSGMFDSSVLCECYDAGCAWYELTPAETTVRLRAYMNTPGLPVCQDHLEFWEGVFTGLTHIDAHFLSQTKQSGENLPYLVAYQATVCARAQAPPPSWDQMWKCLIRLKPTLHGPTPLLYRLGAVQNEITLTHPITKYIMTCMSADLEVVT

[2] = biological target: Hepatitis C virus serine protease, NS3/NS4A (Hepatitis C virus, UniProt A3EZI9+D2K2A8); assay: as §1; format: protein-complex assay, Hepacivirus hominis
Hepatitis C virus serine protease, NS3/NS4A (Hepatitis C virus, UniProt A3EZI9+D2K2A8), sequence (D2K2A8 whole entry): as the sequence (D2K2A8 whole entry) above
Hepatitis C virus serine protease, NS3/NS4A (Hepatitis C virus, UniProt A3EZI9+D2K2A8), sequence (A3EZI9 whole entry): as the sequence (A3EZI9 whole entry) above

Structure (SMILES)	Ki [1] [nM]	Ki [2] [nM]
CC[C@H](NC(=O)[C@@H]1[C@@H](C)CCN1C(=O)[C@@H](NC(=O)[C@@H](NC(=O)c1cnccn1)C(C)C)C(C)C)C(=O)C(=O)N[C@@H](C)c1ccccc1	1400	
CCC[C@H](NC(=O)[C@@H]1CCCN1C(=O)[C@@H](NC(=O)[C@@H](NC(=O)c1cnccn1)C1CCCCC1)C(C)(C)C)C(=O)C(=O)NC1CC1		1200
CCC[C@H]1CCN(C(=O)[C@@H](NC(=O)[C@@H](NC(=O)c2cnccn2)C(C)C)C(C)C)[C@@H]1C(=O)N[C@@H](CCC)C(=O)C(=O)N[C@@H](Cc1ccccc1)C(=O)O	1200	
CCC[C@H](NC(=O)[C@@H]1[C@@H](C(C)CC)CCN1C(=O)[C@@H](NC(=O)[C@@H](NC(=O)c1cnccn1)C(C)C)C(C)C)C(=O)C(=O)N[C@@H](Cc1ccccc1)C(=O)O (some centres undefined)	120	
CCC[C@H](NC(=O)[C@@H]1[C@@H](C(=O)OC)CCN1C(=O)[C@@H](NC(=O)[C@@H](NC(=O)c1cnccn1)C(C)C)C(C)C)C(=O)C(=O)N[C@@H](Cc1ccccc1)C(=O)O	180	
CC[C@H](NC(=O)[C@@H]1C[C@@H](OCc2ccccc2)CN1C(=O)[C@@H](NC(=O)[C@@H](NC(=O)c1cnccn1)C(C)C)C(C)C)C(=O)C(=O)N[C@@H](C)c1ccccc1	920	
C=CC[C@H]1CCN(C(=O)[C@@H](NC(=O)[C@@H](NC(=O)c2cnccn2)C(C)C)C(C)C)[C@@H]1C(=O)N[C@@H](CCC)C(=O)C(=O)N[C@@H](Cc1ccccc1)C(=O)O	210	
CCC[C@H](NC(=O)[C@@H]1C[C@@H](OC(=O)N2CCc3ccccc3C2)CN1C(=O)[C@@H](NC(=O)[C@@H](NC(=O)c1cnccn1)C(C)C)C(C)C)C(=O)C(=O)N[C@@H](Cc1ccccc1)C(=O)O (Pyrazinecarbonyl-VV[Hyp]([CO-Tetrahydroisoquinolin(2-yl)])[X1]F-OH)	20	
CCC[C@H](NC(=O)[C@@H]1[C@@H](CC)CCN1C(=O)[C@@H](NC(=O)[C@@H](NC(=O)c1cnccn1)C(C)C)C(C)C)C(=O)C(=O)N[C@@H](Cc1ccccc1)C(=O)O (Pyrazinecarbonyl-VV[Pro(3S-Et)][X1]F-OH)	220	
